From PMC6915745, “TRIB3 supports breast cancer stemness by suppressing FOXO1 degradation and enhancing SOX2 transcription” (Nature Communications, 2019) come the findings set out here.

Test [1] relates to TRIB3. In words: TRIB3 expression after IL-6, MDA-MB-231 cells (WB). Type of test: cell-based. The conditions noted are these: various IL-6 concentrations 8 hr, or 10 ng/ml IL-6 for different times. The protocol:
Cycloheximide (CHX; Sigma Aldrich, R750107) was used as a protein synthesis inhibitor to assess the stability of the existing proteins. To assess protein stability, cells were treated with 20 μM CHX and the proteasome inhibitor MG132 (Sigma Aldrich, R750107) at 10 μM or the autophagy inhibitor BAF (Sigma Aldrich, B1793) at 200 nM for the indicated times. Protein expression was assessed via immunoblot analysis with cell lysates (20–60 μg) prepared in RIPA lysis buffer containing protease inhibitors (Roche) using anti-SOX2 (3529), anti-NANOG (4903), anti-OCT4 (2750), anti-KLF4 (4038), anti-c-Myc (13987), anti-FOXO1 (2880), anti-p-FOXO1 (9461), anti-AKT (4685), anti-p-AKT (4060), anti-β-ACTIN (4970), anti-Ubiquitin (3936), or anti-LaminA/C (4777) antibodies from CST; anti-TRIB3 antibody (ab75846) from Abcam; and anti-Trib3 antibody (PA5-15480) from Thermo Fisher Scientific[59]. […] The protein concentrations were determined by BCA Protein Assay Kits (Pierce). […]
(GSE12790). Relative amounts of TRIB3 transcripts were measured using the 205805_s_at probe. […]
levels of TRIB3 mRNA. Metastasis-free survival was determined by Kaplan–Meier analyses, and
significant differences were determined by log-rank tests. […]
24 hr, glucose deprivation (DG) for 12 hr, and high glucose (HG) for 24 hr was detected by Western […]
8 hr (f) or 10 ng/ml IL-6 for different amounts of time (g) was detected by WB. […]

Test [2] concerns MCF7 cells. In words: Mammosphere (tumorsphere) formation, MCF7 cells. As to conditions: one week of IL-6, serum-free spheroid suspension culture. It is filed as cell-based, human.
In test [3] the test system is TRIB3. In words: TRIB3 expression after cytokines or stressors, MCF7 cells (WB). It is filed as cell-based, human. The method, then:
Cycloheximide (CHX; Sigma Aldrich, R750107) was used as a protein synthesis inhibitor to assess the stability of the existing proteins. To assess protein stability, cells were treated with 20 μM CHX and the proteasome inhibitor MG132 (Sigma Aldrich, R750107) at 10 μM or the autophagy inhibitor BAF (Sigma Aldrich, B1793) at 200 nM for the indicated times. Protein expression was assessed via immunoblot analysis with cell lysates (20–60 μg) prepared in RIPA lysis buffer containing protease inhibitors (Roche) using anti-SOX2 (3529), anti-NANOG (4903), anti-OCT4 (2750), anti-KLF4 (4038), anti-c-Myc (13987), anti-FOXO1 (2880), anti-p-FOXO1 (9461), anti-AKT (4685), anti-p-AKT (4060), anti-β-ACTIN (4970), anti-Ubiquitin (3936), or anti-LaminA/C (4777) antibodies from CST; anti-TRIB3 antibody (ab75846) from Abcam; and anti-Trib3 antibody (PA5-15480) from Thermo Fisher Scientific[59]. All antibodies were used at 1:1000 dilution, with the exception of anti-β-Actin antibodies, which were used at 1:2000 dilution. The protein concentrations were determined by BCA Protein Assay Kits (Pierce). Proteins were separated by SDS-polyacrylamide gel electrophoresis (PAGE) and transferred to polyvinylidene difluoride membrane. […]
(f, g) The expression of
TRIB3 in MCF7 cells (top) or MDA-MB-231 cells (bottom) treated with various concentrations of IL6 for
8 hr (f) or 10 ng/ml IL-6 for different amounts of time (g) was detected by WB. (h) Silencing TRIB3
decreased the tumor sphere formation ability of MCF7 cells with or without IL-6 stimulation. […]
Data are shown as the mean ± SEM; P>0.05 was considered not significant (N.S.); *P<0.05, **P<0.01
and ***P<0.001, compared with the con group in panels d-f. Source data are provided as a Source Data

Test [4] has as its system TRIB3. Nature of the test: Relative TRIB3 mRNA in control or FOXO1-silenced MCF7 cells after stressors. As to conditions: FOXO1-shRNA MCF7 cells, in words. Type of test: cell-based, human.
The subject of test [5] is MCF7 cells. In words: TRIB3/AKT/FOXO1/SOX2 axis after IL-6, CoCl2 or high glucose, MCF7 cells (WB). It is filed as cell-based, human. As to conditions: MCF7 cells, IL-6 12 hr, high glucose 24 hr, WB.

Entries after “also recorded” stand apart in the source; their conditions may differ.

Take IL-6: cytokine interleukin (IL)-6: the “TRIB3 expression, dose- and time-dependence” value in the test with TRIB3 [1] is “enhanced TRIB3 expression in MCF7 and MDA-MB-231 cells in dose-”; in the test with TRIB3 [3] (various IL-6 concentrations 8 hr, or 10 ng/ml IL-6 for different times) it was “enhanced TRIB3 expression in MCF7 and MDA-MB-231 cells in dose-”. In the test with MCF7 cells [2], the tumorsphere-formation ability entry is recorded as “increased the tumorsphere-formation ability”. For the same substance, the TRIB3 expression result with TRIB3 [3] (cytokines 8 hr, high glucose 24 hr) was “enhanced TRIB3 expression in MCF7 cells”. Moreover, the “TRIB3 expression in FOXO1-silenced BCCs” value with TRIB3 [4] is “could enhance TRIB3 expression in FOXO1-silenced BCCs”. The “expressions of FOXO1 and SOX2” value in the test with MCF7 cells [5] (CoCl2 24 hr) was “enhance; also recorded: enhanced expressions of FOXO1 and SOX2”. Also, the “activity of FOXO1 S256” value in the test on MCF7 cells [5] is “reduced the activity of FOXO1^S256”.
